# Where a name gives a salt, the structure may show the parent alone. Read-outs that look alike come from different tables or passages of the source.
# Legend:
# Format in all cases: cell-based
# [1] = test system: E. coli (AmpC); test: microbe, parasite or virus in culture; conditions: for MIC: Escherichia coli
# Procedure: (§1) MICs were determined by the broth microdilution method in accordance with Clinical and Laboratories Institute (CLSI) guidelines. In brief, fresh overnight bacterial cultures were suspended in sterile saline, and adjusted to a 0.5 McFarland turbidity standard. Bacterial suspensions were then diluted in cation adjusted Mueller-Hinton Broth (MHB II; BBL) to yield a final inoculum of approximately 5×10^5 colony-forming units (CFU)/mL. A master plate of antibiotics was prepared at a concentration equivalent to hundred-fold the highest desired final concentration in 100% dimethyl sulfoxide (DMSO). The master antibiotic plate was then diluted by serial twofold dilution with a multichannel pipette. The resulting dilution series of compounds were diluted 1:10 with sterile water or a solution of beta-lactamase inhibitor prepared at a concentration equivalent to eleven-fold the desired final concentration in deionized water leading to a 10% DMSO final concentration. A volume of 10 μL of the drug dilution series was transferred to 96-well assay plates. Assay plates were inoculated with 90 μL of bacterial suspensions and incubated at 35° C. for 20 hrs. The assay plates were read using a microtiter plate reader (Molecular Devices) at 600 nm as well as by visual observation with a reading mirror. The lowest concentration of the compound that prevented visible growth was recorded as the MIC. Performance of the assay was monitored by testing aztreonam against laboratory quality control strains in accordance with guidelines of the CLSI.
# (§2) Synergy or potentiation of beta-lactam antibiotics through inhibition of Q-lactamases was assessed against an isogenic panel of E. coli strains, each expressing a unique beta-lactamase, and against clinical strains.
# The gene encoding AmpC was PCR amplified from the genome of strain P. aeruginosa PAO1 (NB52019) (GenBank ID U5R279) using primer pair E252 (gccCTCGAGggcgaggccccggcggatcgc) (SEQ ID NO: 17) and E253 (tgaGAATTCtcagcgcttcagcggcacct) (SEQ ID NO: 18).
# The PCR products were then digested with XhoI and EcoRI and ligated into similarly digested plasmid pAH63-pstS(BlaP). Plasmid pAH63-pstS(BlaP) is a derivative of plasmid pAH63 (J Bacteriol: 183(21): 6384-6393) made by cloning the TEM-1 (bla) promoter and signal peptide encoding region from plasmid pBAD (J Bacteriol. 1995 July 177(14):4121-30) into plasmid pAH63. This fragment was PCR amplified from pBAD using primer pair E192 (ttcaCTGCAGtgaacgttgcgaagcaacggC) (SEQ ID NO:19) and E194 (TCGAggatcctcgagagcaaaaacaggaaggcaaaatgccg) (SEQ ID NO:20), digested with PstI and BamHI and inserted into similarly digested plasmid pAH63. Therefore, expression of beta-lactamases from pAH63-pstS(BlaP) based constructs is constitutive and the signal sequence is provided to direct these proteins to the periplasm. Plasmid pAH63 based vectors are used for insertion into the genome in single copy, however, to provide higher expression levels to allow more sensitive detection of the susceptibility of compounds to the expressed beta-lactamases, the expression inserts contained in these vectors were moved to the replicative multicopy vector pBAD-Kan (J Bacteriol. 1995 July 177(14):4121-30). To accomplish this, the inserts encompassing the beta-lactamase genes, with the associated TEM promoter and signal sequences, were PCR amplified from their corresponding vectors using primer E268 (ccgTCTAGAcggatggcctttttgcgtttc) (SEQ ID NO:21) and E202 (aatcGAATTCttactgaccattaacgcccaagc) (SEQ ID NO:22) for the KPC2 construct, E204 (aatcGAATTCttaacgctgccagtgctcaatc) (SEQ ID NO:23) for the SHV-12 construct and E203 (aatcGAATTCttacagaccgtcggtgacaatc) (SEQ ID NO:24) for the CTX-M-15 construct. These fragments were then digested with XbaI and EcoRI, and each was inserted into pBAD18-kan that had been digested with the same enzymes to generate multicopy vectors expressing KPC-2, SHV-12 and CTX-M-15, respectively. […]
# [2] = test system: K. pneumoniae NB29323 (CTX-M-15, OXA-48, VEB-1); conditions: aztreonam alone
# Procedure: as §1, §2
# [3] = test system: E. coli (CTX-M-15); test: microbe, parasite or virus in culture
# Procedure: as §1, with “MIC.” for “MIC. Performance of the assay was monitored by testing aztreonam against laboratory quality control strains in accordance with guidelines of the CLSI.”
# as §2
# (§3) Strain NB27273 (BW25113 pspB::Km^r) was obtained from the Keio transposon insertion collection. The strain has the pspB gene replaced by a kanamycin resistance marker (BW25113 pspB::Km^r). This strain was cured of the transposon in pspB via FLP recombinase using published methodology. The resulting strain, BW25113 pspB, was used as a host for multicopy vectors expressing key beta-lactamases. Multicopy plasmids directing constitutive expression of beta-lactamases were established as follows: Synthetic, codon optimized genes encoding E. coli KPC-2, SHV-12 and CTX-M-15 beta-lactamases were made by DNA2.0 (Palo Alto, Calif.). Each of the synthetic fragments were designed to contain NotI and NcoI restriction sites at their termini, allowing ligation into a NotI/NcoI digested pET28a(+) derivative for protein expression. […] The codon optimized nucleotide sequences and relevant primer recognition information is shown below:
# (§4) The PCR products were then digested with XhoI and EcoRI and ligated into similarly digested plasmid pAH63-pstS(BlaP). […] Therefore, expression of beta-lactamases from pAH63-pstS(BlaP) based constructs is constitutive and the signal sequence is provided to direct these proteins to the periplasm. […] These fragments were then digested with XbaI and EcoRI, and each was inserted into pBAD18-kan that had been digested with the same enzymes to generate multicopy vectors expressing KPC-2, SHV-12 and CTX-M-15, respectively. These vectors were transformed into BW25113 pspB to generate strains NB27273-CDY0033 (expressing KPC-2), NB27273-CDY0030 (expressing SHV-12), NB27273-CDY0034 (expressing CTX-M-15) and NB27273-CDY0036 (expressing AmpC). The pBAD18-kan vector also contains the TEM promoter region and signal sequence, (but lacks any intact beta-lactamase genes) and was transformed into BW25113 pspB using standard protocols to generate the control strain NB27273-CDY0026.
# [4] = test system: E. coli (KPC-2); test: microbe, parasite or virus in culture; conditions: E. coli (KPC-2)
# Procedure: as §1, with “MIC.” for “MIC. Performance of the assay was monitored by testing aztreonam against laboratory quality control strains in accordance with guidelines of the CLSI.”
# as §2, §3, §4
# [5] = test system: E. coli (SHV-12); test: microbe, parasite or virus in culture
# Procedure: as §1, with “MIC.” for “MIC. Performance of the assay was monitored by testing aztreonam against laboratory quality control strains in accordance with guidelines of the CLSI.”
# as §2, §3, §4
# [6] = test system: E. coli (TEM-10); test: microbe, parasite or virus in culture
# Procedure: as §1, with “MIC.” for “MIC. Performance of the assay was monitored by testing aztreonam against laboratory quality control strains in accordance with guidelines of the CLSI.”
# as §2
# (§5) Construction of E. coli isogenic strains, NB27273-CDY0105 (OXA-18) and NB27273-CDY0048 (TEM-10). […] The gene encoding OXA-18 was then digested with XhoI and EcoRI and inserted into this vector, from which the gene for GIM-1 had been removed with XhoI and EcoRI.
# From this template DNA, three fragments were generated by PCR using the following primer pairs;
# This fragment was then digested with XbaI and EcoRI and inserted into pBAD-kan which was also cut with the same enzymes.
# (§6) These final vectors for expression of OXA-18 and TEM-10 were transformed into BW25113 pspB to generate strains NB27273-CDY0105 (expressing OXA-18) and NB27273-CDY0048 (expressing TEM-10).
# [7] = test system: E. coli (OXA-18); test: microbe, parasite or virus in culture; conditions: for MIC of piperacillin with beta-lactamase inhibitor: Pip + BLI at 2 μg/mL
# Procedure: as §1, with “MIC.” for “MIC. Performance of the assay was monitored by testing aztreonam against laboratory quality control strains in accordance with guidelines of the CLSI.”
# as §2, §5, §6
# [8] = test system: E. coli ATCC 25922; test: MIC by broth microdilution, BLI alone; conditions: Escherichia coli, ATCC25922, read-out: Minimal Inhibitory Concentrations (MIC) of selected BLIs
# Procedure: as §1
# [9] = test system: K. pneumoniae ATCC 43816; test: MIC by broth microdilution, BLI alone; conditions: Klebsiella pneumoniae, ATCC43816, read-out: Minimal Inhibitory Concentrations (MIC) of selected BLIs
# Procedure: as §1
# [10] = test system: P. aeruginosa ATCC 27853; test: MIC by broth microdilution, BLI alone; conditions: Pseudomonas aeruginosa, ATCC27853, read-out: Minimal Inhibitory Concentrations (MIC) of selected BLIs
# Procedure: as §1
# [11] = Escherichia coli, Mero alone, read-out: MIC of meropenem
molecule,measurement,setting,value
C[C@H]1[C@H](NC(=O)/C(=N\OC(C)(C)C(=O)O)c2csc(N)n2)C(=O)N1S(=O)(=O)O [Aztreonam],MIC,"[1]; read-out: MIC of aztreonam, AZ alone",4 µg/mL
same,Activity of aztreonam,[2],>64 µg/mL
Nc1nc(/C(=N/OC2(C(=O)O)CC2)C(=O)N[C@@H]2C(=O)N(S(=O)(=O)O)[C@@H]2CN2CCOC2=O)cs1 [Beta-Lactam 5],Activity of Beta-Lactam 5,[3]; Beta-Lactam 5 alone,0.125 µg/mL
same,Activity of Beta-Lactam 5,[4]; Beta-Lactam 5 alone,0.25 µg/mL
same,Activity of Beta-Lactam 5,[5]; Beta-Lactam 5 alone,0.5 µg/mL
same,Activity of Beta-Lactam 5,[6]; Beta-Lactam 5 alone,2 µg/mL
same,Activity of Beta-Lactam 5,[1]; Beta-Lactam 5 alone,0.25 µg/mL
same,Activity of Beta-Lactam 5,[7]; Beta-Lactam 5 alone,0.5 µg/mL
"CN1C[C@@H]2C[C@@H]3CN(C(=O)N3OS(=O)(=O)[O-])[C@@H]2C1=O.[Na+] [Example 2, Sodium (4R,5aS,8aS)-7-methyl-2,8-dioxohexahydro-2H-1,4-methanopyrrolo[3,4-d][1,3]diazepin-3(4H)-yl sulfate]",MIC,[8],> 64 µg/mL
same,MIC,[9],> 64 µg/mL
same,MIC,[10],> 64 µg/mL
same,MIC of piperacillin with beta-lactamase inhibitor,[7],4 µg/mL
"O=C1[C@@H]2[C@@H](C[C@@H]3CN2C(=O)N3OS(=O)(=O)[O-])CN1C1CC1.[Na+] [Example 3, Sodium (4R,5aS,8aS)-7-cyclopropyl-2,8-dioxohexahydro-2H-1,4-methanopyrrolo[3,4-d][1,3]diazepin-3(4H)-yl sulfate]",MIC,[8],> 64 µg/mL
same,MIC,[9],> 64 µg/mL
same,MIC,[10],> 64 µg/mL
same,MIC of piperacillin with beta-lactamase inhibitor,[7],4 µg/mL
"O=C1[C@@H]2[C@@H](C[C@@H]3CN2C(=O)N3OS(=O)(=O)[O-])CN1CCO.[Na+] [Example 4, Sodium (4R,5aS,8aS)-7-(2-hydroxyethyl)-2,8-dioxohexahydro-2H-1,4-methanopyrrolo[3,4-d][1,3]diazepin-3(4H)-yl sulfate]",MIC,[8],> 64 µg/mL
same,MIC,[9],> 64 µg/mL
same,MIC,[10],> 64 µg/mL
"NCCN1C[C@@H]2C[C@@H]3CN(C(=O)N3OS(=O)(=O)O)[C@@H]2C1=O [Example 5, (4R,5aS,8aS)-7-(2-aminoethyl)-2,8-dioxohexahydro-2H-1,4-methanopyrrolo[3,4-d][1,3]diazepin-3(4H)-yl hydrogen sulfate]",MIC,[8],> 64 µg/mL
same,MIC,[9],> 64 µg/mL
same,MIC,[10],> 64 µg/mL
"CCCN1C[C@@H]2C[C@@H]3CN(C(=O)N3OS(=O)(=O)[O-])[C@@H]2C1=O.[Na+] [Example 6, Sodium (4R,5aS,8aS)-2,8-dioxo-7-propylhexahydro-2H-1,4-methanopyrrolo[3,4-d][1,3]diazepin-3(4H)-yl sulfate]",MIC,[8],> 64 µg/mL
same,MIC,[9],> 64 µg/mL
same,MIC,[10],> 64 µg/mL
"O=C1NCC[C@@H]2C[C@@H]3CN(C(=O)N3OS(=O)(=O)[O-])[C@H]12.[Na+] [Example 7, Sodium (4R,5aR,9aS)-2,9-dioxooctahydro-1,4-methanopyrido[3,4-d][1,3]diazepin-3(2H)-yl hydrogen sulfate]",MIC,[8],> 64 µg/mL
same,MIC,[9],> 64 µg/mL
same,MIC,[10],> 64 µg/mL
same,MIC of piperacillin with beta-lactamase inhibitor,[7],8 µg/mL
"COC[C@@H]1NC(=O)[C@@H]2[C@H]1C[C@@H]1CN2C(=O)N1OS(=O)(=O)[O-].[Na+] [Example 8, Sodium (4R,5aS,6R,8aS)-6-(methoxymethyl)-2,8-dioxohexahydro-2H-1,4-methanopyrrolo[3,4-d][1,3]diazepin-3(4H)-yl hydrogen sulfate]",MIC,[8],> 64 µg/mL
same,MIC,[9],> 64 µg/mL
same,MIC,[10],> 64 µg/mL
C[C@@H](O)[C@H]1C(=O)N2C(C(=O)O)=C(S[C@@H]3CN[C@H](C(=O)N(C)C)C3)[C@H](C)[C@H]12 [Meropenem],MIC,[3]; [11],≤ 0.06 µg/mL
same,MIC,[4]; [11],1 µg/mL
same,MIC,[5]; [11],≤ 0.06 µg/mL
same,MIC,[6]; [11],≤ 0.06 µg/mL
same,MIC,"[1]; Mero alone, read-out: MIC of meropenem",≤ 0.06 µg/mL
same,MIC,[7]; [11],≤ 0.06 µg/mL
Ceftazidime,MIC of ceftazidime,[3]; ceftazidime alone,16 µg/mL
same,MIC of ceftazidime,[5]; ceftazidime alone,>64 µg/mL
same,MIC of ceftazidime,[6]; ceftazidime alone,>64 µg/mL
same,MIC of ceftazidime,[1]; ceftazidime alone,4 µg/mL
same,MIC of ceftazidime,[7]; ceftazidime alone,>64 µg/mL

# From patent US10065957B2, “Beta-lactamase inhibitors” (Novartis AG, priority 2016, dated 2018)
